This is an account of results in US11577092B2, “Phosphor-containing drug activator activatable by a monte carlo derived X-ray exposure, system containing the activator, and methods for use” (IMMUNOLIGHT, LLC, priority 2016, dated 2023).

The test system of data set [1] is 4T1-HER2 cells. As to the kind of experiment: Methylene blue staining for cell viability post treatment. The conditions noted are these: individual components; 1 Gy of 80 kVp x-rays; phosphor 25, 50, 100 μg/mL; UVADEX 10 uM 8-MOP. Format: cell-based, murine. The source says:
Methylene blue staining of viable 4T1-HER2 cells confirms that the device works well according to the target parameters identified above. A plate having six (6) wells is subjected to treatment. FIG. 11 is a photographic depiction showing of Methylene Blue stain for cell viability post treatment with X-ray, phosphors and UVADEX. One well (#1) is the control. One well (#2) has phosphor coated with EC and DLC (H100). One well (#3) has phosphor coated with EC (but no DLC). One well (#4) has drug UVADEX but no phosphors. One well (#5) has drug UVADEX and phosphors coated with EC and DLC. One well (#6) has drug UVADEX and phosphors coated with EC and no DLC.
All wells were exposed to the optimized x-ray initiation energy noted above. […] One added benefit to a dual coating is redundancy in safety of the treatment.
(§1) Other assays were used to provide independent complimentary information on cell viability, e.g. Methylene blue staining and ATP-induced Luminescence imaging (Cell-Titer-Glo® Luminescence Cell Viability Assay). The luminescence imaging permitted investigation of the cytotoxicity of psoralen activated directly with a UV lamp, and in the absence of phosphors and x-ray radiation.
FIGS. 13A-13D illustrates the efficacy of treatment in-vitro in 4T1-HER2 cells, utilizing a regimen of 1/10-diluted UVADEX (with equivalent of 10 uM 8-MOP), 50 μg/mL phosphor 1 Gy of 80 kVp x-rays. […]

Data set [2] has as its system 4T1-HER2 cells. Kind of data set: Cell viability by Guava flow cytometry (forward scattering) 48 hours after treatment. The class given is cell-based, murine. The conditions noted are these: single component, 1 Gy of 80 kVp; UVADEX p=0.97, phosphors p=0.034. The method, then: (§2) In-vitro studies were conducted on plated cells following standard procedures. Cells were maintained in RPMI-1640 supplemented with 10% fetal bovine serum and L-glutamine from GIBCO (Grand Island, N.Y.) growing in a humidified atmosphere of 5% CO2. After incubation, cells were trypsinized and plated evenly onto twelve 12-well plates for 24 hours. […] Each plate had 12 wells with three wells for each of the four treatment arms. The plates were then irradiated with x-rays by placing the plate at a known distance from the x-ray source (50 cm). After irradiation, the cells were incubated on the plate for 48 hours prior to performing flow cytometry. […]
(§3) Two primary flow cytometry analyses were used, both determined at 48 hours after treatment. […] The first analysis evaluated was metabolic cell viability (herein referred to as cell viability) calculated from the number of whole cells per well as determined using forward scattering (FSC). […]
(§4) FIGS. 13A-13D illustrates the efficacy of treatment in-vitro in 4T1-HER2 cells, utilizing a regimen of 1/10-diluted UVADEX (with equivalent of 10 uM 8-MOP), 50 μg/mL phosphor 1 Gy of 80 kVp x-rays. […] In FIG. 13A, cell viability after treatment (10 μM 8-MOP equivalent dilution of UVADEX, 50 μg/mL phosphor, 1 Gy of 80 kVp radiation) as determined by Guava flow cytome cytometry is depicted. […]

In data set [3] the test system is 4T1-HER2 cells. As to the kind of experiment: Annexin V positivity by flow cytometry 48 hours after treatment. The conditions noted are these: 10 μM 8-MOP equivalent UVADEX, 50 μg/mL phosphor, 1 Gy of 80 kVp; UVADEX alone with or without x-ray. The class given is cell-based, murine. As to the method: as §2, §3, §4
For orientation: A flow cytometer gives signals particle by particle.

Data set [4] relates to CT2A (murine malignant glioma), 4T1 and KP-B (sarcoma) cell lines. As to the kind of experiment: Cell-Titer-Glo Luminescence Cell Viability Assay on three cell lines. The class given is cell-based. The conditions noted are these: psoralen 40 μM; UV light 0, 0.25, 0.5, 1.0 J/cm^2; N=4.
Description: Guava Annexin V flow cell cytometry was used to quantify cytotoxicity in 3 murine tumor cell lines (mammary −4T1; 4T1-HER2, 4T1 stably transfected with the human HER2 oncogene; glioma-CT2A; sarcoma KP-B). The mouse breast cancer cell line 4T1 was purchased from ATCC. 4T1-HER2 was provided by Dr. Michael Kershaw (Cancer Immunology Program, Peter MacCallum Cancer Centre, Victoria, Australia) and maintained in DMEM with penicillin/streptomycin and 10% FBS The Sarcoma KP-B cell lines were derived from primary tumors LSL-Kras; p53 Flox/Flox mice (45).
as §1
FIG. 14B presents data on CT2A malignant glioma cells, for a range of treatment parameters including variable x-ray dose (0, 0.67 and 1 Gy), phosphor concentration (50 or 100 μg) and psoralen concentration (8-MOP) at 10, 20 and 40 μM respectively. […] N=4 for each cell line at each UV light condition (0, 0.25, 0.5, 1.0 J/cm^2). The psoralen concentration was 40 μM. […]

SMILES strings stand for the structures.

Consider `COc1c2occc2cc2ccc(=O)oc12` [UVADEX, 8-methoxypsoralen], for which, in data set [1], the “effect in methyl blue staining” value is given as “little effect”. For the same molecule, in data set [2], the “reduction in cell viability when radiation was added” value was “no significant effect”. The “increase in Annexin V staining (apoptotic activity)” value in data set [3] is on record as “negligible apoptotic activity”.
Take `O=c1ccc2cc3ccoc3cc2o1` [psoralen]: in data set [4], the “viable cells after UV light activated psoralen” value is listed as “reduce viable cells in 3 cell lines”.
